# In paper PMC12074917, “Molecular pharmacokinetic mechanism of JBP485 against aristolochic acid I (AAI) -induced nephrotoxicity” (Frontiers in Pharmacology, 2025):
# Columns and labels:
# [1] = system: AAI-induced nephrotoxicity in rats; test: Toxicity study in rats (AAI-induced nephrotoxicity, AAN): histology, biochemical indicators, oxidative stress markers, Western blotting of kidney; type: in vivo, rat
# Method: For the assessment of toxicity, AAI was suspended in olive oil and JBP485 was dissolved in saline. Rats were randomly divided into the following four groups (n = 5 per group): A control group, which was administered saline intraperitoneally (i.p.) and olive oil orally (p.o.); a JBP485-only group, administered JBP485 i. p. at the dose of 50 mg/kg and olive oil p. o.; an AAI-only group, in which the rats were administered AAI p. o. at the dose of 20 mg/kg and saline i. p.; and a JBP485 + AAI group, where the animals were given AAI p. o. at the dose of 20 mg/kg and JBP485 i. p. at the dose of 50 mg/kg. JBP485 was intraperitoneally administered 2 days before AAI treatment. On day 3 and 30 min after AAI administration, rats were given saline i. p. or JBP485 (50 mg/kg) once daily for 7 days. On day 10, the rats were euthanized and blood, urine, and kidneys were collected for subsequent assays.
# Indoxyl sulfate levels in plasma and urine of rats were determined by liquid chromatography-tandem mass spectrometry (LC–MS/MS) (API 3200; Applied Biosystems, Foster City, CA, United States) according to our previous study ([Guo et al., 2013]).
# The levels of BUN and CRE in rat plasma were detected following the instructions of the Nanjing Jiancheng Institute of Biotechnology (Nanjing, China). Samples and reagents were added according to the instructions of the kit and reactions were carried out under the specified conditions. Absorbance was measured at 520 nm and 546 nm, respectively, and the quantities were calculated based on the corresponding formula.
# For the extraction of total protein, 100 mg of fresh kidney tissue was placed in 1 mL of RIPA buffer containing protease inhibitor, phosphatase inhibitor, and PMSF, cut into small pieces with ophthalmic scissors, homogenized, and placed at 4°C to fully lyse for 20 min, with vortexing every 5 min. Following centrifugation at 12,000 rpm for 20 min at 4°C, the protein concentration in the supernatant was determined using a BCA protein quantification kit. The protein concentrations of all the samples were then adjusted to the lowest protein concentration measured. Subsequently, an appropriate amount of 5× loading buffer was added according to the volume, and the samples were placed in boiling water for 10 min. Equal amounts of protein (40 μg) were separated by SDS–PAGE at constant current (120 mA), transferred to a PVDF membrane by wet transfer, blocked in 5% non-fat dry milk for 2 h, and incubated overnight with primary antibodies. The next day, the samples were incubated with the corresponding secondary antibodies (goat anti-rabbit IgG [H&L], 1:2000, or goat anti-mouse IgG [H&L], 1:2000) for 2 h at room temperature. The protein bands were developed using enhanced chemiluminescence (ECL, YH0009-1, Nanjing Crane Biopharmaceuticals, Nanjing, China) and Tanon-5200 system (Shanghai Tianneng Technology Company, Shanghai, China) while ImageJ 6.0 software was used for analysis.
# [2] = biological target: T1, hOAT3 (Homo sapiens, UniProt Q8TCC7); test: Uptake of AAI by hOAT3-transfected HEK293 cells with or without JBP485; type: cell-based
# T1 construct: expressed in transfected cells; host or cells: HEK293
# T1 sequence (Q8TCC7 1-542): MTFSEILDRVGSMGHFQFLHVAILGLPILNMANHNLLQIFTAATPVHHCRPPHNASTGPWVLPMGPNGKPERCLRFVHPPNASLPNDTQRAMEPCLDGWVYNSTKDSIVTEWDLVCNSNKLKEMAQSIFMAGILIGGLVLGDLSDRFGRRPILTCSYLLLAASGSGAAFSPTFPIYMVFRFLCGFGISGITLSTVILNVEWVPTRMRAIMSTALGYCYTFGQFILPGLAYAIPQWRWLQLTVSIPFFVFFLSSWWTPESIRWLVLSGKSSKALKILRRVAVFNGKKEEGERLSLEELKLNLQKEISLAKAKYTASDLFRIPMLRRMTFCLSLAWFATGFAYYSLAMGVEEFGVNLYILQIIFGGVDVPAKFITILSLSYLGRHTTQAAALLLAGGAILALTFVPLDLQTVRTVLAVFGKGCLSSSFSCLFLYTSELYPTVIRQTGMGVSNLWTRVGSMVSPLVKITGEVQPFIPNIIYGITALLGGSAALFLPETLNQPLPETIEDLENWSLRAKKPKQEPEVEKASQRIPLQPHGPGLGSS
# Method: Uptake experiments with hOAT1/3-HEK293 cells were performed as previously described ([Zhu et al., 2020]). Uptake was initiated by adding transport buffer (1 mL) with AAI (1 μM) and/or JBP485 (500 μM) after the cells were washed twice and incubated with transport buffer at 37°C. Moreover, the concentration-dependent uptake of AAI and the effects of JBP485 on AAI uptake were examined. Uptake was terminated upon the removal of the medium. The cells were washed three times with 1 mL of ice-cold Hanks’ balanced salt solution, lysed with 0.3 mL of 0.1% (v/v) Triton X-100, and then transferred to a polythene tube for quantification by LC-MS/MS. The protein level was measured using the BCA method (Solarbio, Beijing, China) with bovine serum albumin serving as the standard.
# The concentrations of the test compounds in plasma, urine, and cell lysates were determined using an Agilent HP1200 liquid chromatography system (Agilent Technology Inc., SC, CA, United States) and an API 3200 triple-quadrupole mass spectrometer (Applied Biosystems, SC, CA, United States). After protein precipitation using acetonitrile, the analyte was separated on a Hypersil BDS C18 column. The mobile phase consisted of acetonitrile and water containing 0.1% (v/v) formic acid (80:20, v/v). The flow rate was 0.4 mL/min. The mass spectrometer was equipped with an electrospray ionization (ESI) source. Data were acquired in positive ion mode and dynamic multiple reaction monitoring (MRM) mode. The ESI source conditions were as follows: ion spray voltage, 5.5 kV; ion source temperature, 600°C; Gas source 1 (GS1, N2) pressure, 50 psi; Gas source 2 (GS2, N2) pressure, 60 psi; curtain gas (CUR) pressure, 12 psi; and collision gas (CAD) pressure, 10 psi. EP and CXP were set at […] for all analytes. The scan range was m/z 359.9→298.1 for AAI and m/z 130.0→71.2 for IS (Internal Standard, metformin). […] Intra- and inter-day precision was lower than 4.5% with reference to relative standard deviation, while accuracy was within ±6.5% in terms of relative error for analytes. Analyst software (version 1.4.1) was used for equipment control and data acquisition and analysis.
# [3] = JBP485 50 mg/kg i.p. co-administered with AAI 20 mg/kg p.o.
# [4] = JBP485 co-administered with AAI
# [5] = JBP485 co-administered with AAI vs AAI alone
# [6] = JBP485 treatment with AAI vs AAI alone
# [7] = AAI group vs control, Western blot
structure (smiles),measurement,setting,value
"O=C1N[C@@H](CO)C(=O)N2C[C@H](O)C[C@@H]12 (relative stereo) [JBP485, cyclo-trans-4-L-hydroxyprolyl-L-serine]",AAI-induced weight loss,[1]; [3],significantly prevented
same,renal morphology,[1]; [3],markedly improved
same,expression levels of Bcl-2 and Bax in the kidney,[1]; JBP485-only treatment group,no change
same,body weight or renal morphology,[1]; JBP485 alone 50 mg/kg i.p.,did not influence
same,kidney histology (H&E),[1]; JBP485 alone vs control,no significant difference
same,AAI effect on Bax expression in the kidney,[1]; [4],notably reversed
same,AAI effect on Bcl-2 expression in the kidney,[1]; [4],notably reversed
same,AAI-induced histopathological effects in the kidney (H&E),[1]; [4],significantly mitigated
same,kidney weight-to-body weight ratio,[1]; [5],reduced
same,plasma level of BUN,[1]; [5],opposite trend
same,plasma level of CRE,[1]; [5],opposite trend
same,plasma level of indoxyl sulfate,[1]; [5],opposite trend
same,urine level of indoxyl sulfate,[1]; [5],opposite trend
same,"protein expressions of Oat1, Oat3, Oct2, P-gp, Mrp2 and Mate1 in the kidney","[1]; JBP485 co-administered with AAI vs AAI alone, Western blot",significantly increased
same,AAI effect on HO-1 protein level in the kidney,[1]; [6],reversed
same,AAI effect on MDA levels in the kidney,[1]; [6],reversed
same,AAI effect on NQO1 protein level in the kidney,[1]; [6],reversed
same,AAI effect on SOD level in the kidney,[1]; [6],reversed
same,type of inhibition of AAI uptake,"[2]; hOAT3-HEK293 cells, Km increased, Vmax unchanged",competitive inhibition
same,IC50,"[2]; hOAT3-transfected HEK293 cells, substrate AAI, read-out: IC50 of inhibition of AAI uptake, OAT3",91 ± 10.3 µM
"COc1cccc2c1cc([N+](=O)[O-])c1c(C(=O)O)cc3c(c12)OCO3 [AAI, Aristolochic Acid I]",kidney histology (H&E),[1]; AAI 20 mg/kg p.o.,showed damage
same,body weight,[1]; AAI 20 mg/kg p.o. vs control,significantly decreased
same,kidney weight-to-body weight ratio,[1]; AAI 20 mg/kg p.o. vs control,increase
same,MDA levels in the kidney,[1]; AAI group vs control,markedly increased
same,SOD level in the kidney,[1]; AAI group vs control,significantly decreased
same,plasma level of BUN,[1]; AAI group vs control,significantly higher
same,plasma level of CRE,[1]; AAI group vs control,significantly higher
same,plasma level of indoxyl sulfate,[1]; AAI group vs control,significantly higher
same,urine level of indoxyl sulfate,[1]; AAI group vs control,lower
same,Bax expression in the kidney,[1]; [7],increased
same,Bcl-2 expression in the kidney,[1]; [7],decreased
same,HO-1 protein level in the kidney,[1]; [7],significantly decreased
same,NQO1 protein level in the kidney,[1]; [7],significantly decreased
same,"renal transporter expression (Oat1, Oat3, Oct2, P-gp, Mrp2, Mate1)","[1]; AAI-treated rats, Western blot",downregulation
same,Km,"[2]; hOAT3-HEK293 cells, with or without JBP485, Eadie-Hofstee, n = 3",30.6 ± 1.2 µM
same,Vmax of AAI uptake,"[2]; hOAT3-HEK293 cells, with or without JBP485, n = 3",0.077 ± 0.03 nmol/mg protein/1min
